Five molecules from patent publication US20250019369A1, “N-(4-aminocyclohexyl)pyrimidine-4-carboxamide derivatives as CD38 inhibitors” (Cerevance, Inc., priority 2021, published 2025) can be followed below.

Structures are written as SMILES.

For one series, the target named is Recombinant mouse CD38 (Mus musculus (Mouse), UniProt P56528). The series is described as follows: Mouse CD38 hydrolase assay (fluorescence, ε-NAD substrate). The following applies: recombinant mouse CD38 0.4 nM, 12 μM ε-NAD, 30 min preincubation at 25° C., pH 7.4. In kind it is biochemical. As for the experimental part:
The ability of test compounds to inhibit mouse CD38 hydrolase activity was measured in a fluorescence-based assay using non-physiological NAD^+ substrate analogue 1,N^6-etheno NAD^+ (ε-NAD). Recombinant mouse CD38 (0.4 nM) was preincubated with test compounds in 384-well black microplates for 30 min at 25° C. in PBS (—Ca^2+/Mg^2+) containing 0.005% BSA (pH 7.4). CD38 hydrolase activity was initiated by addition of 12 μM ε-NAD, which yields the fluorescent product 1,N^6-etheno ADP-ribose. Formation of fluorescent product was followed using ClarioStar Plus (BMG) microplate reader by reading fluorescence (excitation λ=300 nm; emission λ=410 nm) at two time points, one immediately after substrate addition (t=0) and one at 6 min (t=6).
Data was analysed by subtracting the values detected at t=0 from t=6 to correct for variation in baseline fluorescence, and fluorescence values were converted to percent inhibition using the average of high signal (CD38 and ε-NAD) and low signal (CD38 and ε-NAD in the presence of a tool CD38 inhibitor) control wells. IC50 values were determined from a 10-point, half log concentration response curve with a four-parameter logistic equation.

The nature of series [1]: Tissue binding assay, plasma (equilibrium dialysis). In kind it is in vitro ADME. The settings on record: dialysis 4 hours at 37° C. The protocol:
[The source words this procedure for another target and reports this target under the same test.] Buffer preparation. A basic solution was prepared by dissolving 14.2 g/L Na2HPO4 and 8.77 g/L NaCl in deionized H2O. An acidic solution was prepared by dissolving 15.6 g/L NaH2PO4·2H2O and 8.77 g/L NaCl in deionized H2O. Using the acidic solution, the basic solution was then titrated to pH 7.4±0.1 and stored at 4° C. for up to 1 month. The stop solution was 100% CH3CN containing 200 ng/mL tolbutamide, 200 ng/mL labetalol and 50 ng/mL metformin.
Test method. Dialysis membrane strips were soaked in ultra-pure water at room temperature for ˜1 hour. Each membrane strip containing 2 membranes was separated and soaked in 20:80 EtOH/H2O (v/v) for ˜20 min, after which they were ready for use or were stored in the solution at 2-8° C. for up to 1 month. Prior to the experiment, the membrane was rinsed and soaked for 20 min in ultra-pure water. On the day of experiment, brain homogenate was thawed in a water bath at room temperature and incubated at 37° C. for 10 min before use. Test and control compounds were dissolved in DMSO to achieve 10 mM stock solutions. DMSO working solutions were prepared at 400 μM by diluting 10 μL of stock solution. To prepare the time zero (t=0) samples to be used for recovery determination, 50 μL aliquots of loading matrix were transferred in triplicate to the sample collection plate. The samples were immediately matched with opposite blank buffer to obtain a final volume of 100 μL of 1:1 matrix/dialysis buffer (v/v) in each well. 500 μL of stop solution were added to these t=0 samples. They were then stored at 2-8° C. pending further processes along with other post-dialysis samples. To load the dialysis device, an aliquot of 150 μL of the loading matrix was transferred to the donor side of each dialysis well in triplicate, and 150 μL of the dialysis buffer was loaded to the receiver side of the well. The dialysis plate was placed in a humidified incubator at 37° C. with 5% CO2 on a shaking platform that rotated slowly (about 100 rpm) for 4 hours. At the end of the dialysis, aliquots of 50 μL of samples were taken from both the buffer side and the matrix side of the dialysis device. These samples were transferred into new 96-well plates. Each sample was mixed with an equal volume of opposite blank matrix (buffer or matrix) to reach a final volume of 100 μL of 1:1 matrix/dialysis buffer (v/v) in each well. All samples were further processed by adding 500 μL of stop solution containing internal standards. The mixture was vortexed and centrifuged at 4000 rpm for about 20 min. An aliquot of 100 μL of supernatant of all the samples was then removed for LC-MS/MS analysis. The single blank samples were prepared by transferring 50 μL of blank matrix to a 96-well plate and adding 50 μL of blank PBS buffer to each well. Then the matrix-matched samples were further processed by adding 500 μL of stop solution containing internal standards, following the same sample processing method as the dialysis samples.
Data analysis. The % undiluted unbound, % undiluted bound and % recovery were calculated using the following equations:
% Undiluted Unbound=100*1/D/((1/(F/T)−1)+1/D)
% Undiluted Bound=100−% Undiluted Unbound
where F is the analyte concentration or peak area ratio of analyte/internal standard on the buffer (receiver) side of the membrane; T is the analyte concentration or peak area ratio of analyte/internal standard on the matrix (donor) side of the membrane; To is the analyte concentration or the peak area ratio of analyte/internal standard in the loading matrix sample at time zero; and D is the dilution factor determined as 4 in this assay.
For orientation: In equilibrium dialysis only unbound substance equilibrates across the membrane.

Chain of Recombinant mouse CD38 (P56528 whole entry): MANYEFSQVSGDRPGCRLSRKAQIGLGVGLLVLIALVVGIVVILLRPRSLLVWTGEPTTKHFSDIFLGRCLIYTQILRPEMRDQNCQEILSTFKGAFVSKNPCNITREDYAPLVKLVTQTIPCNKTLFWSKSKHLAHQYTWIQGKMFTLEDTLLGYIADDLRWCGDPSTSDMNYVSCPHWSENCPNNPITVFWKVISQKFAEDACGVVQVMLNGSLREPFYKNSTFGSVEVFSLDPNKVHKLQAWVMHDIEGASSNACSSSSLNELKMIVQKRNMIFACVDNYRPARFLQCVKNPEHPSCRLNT

As to `Cc1cc(C(=O)N[C@H]2CC[C@H](NCC(F)(F)F)CC2)nc(-n2ccnc2)n1` [Example 1, 2-(1H-imidazol-1-yl)-6-methyl-N-((1r,4r)-4-((2,2,2-trifluoroethyl)amino)cyclohexyl)pyrimidine-4-carboxamide], the IC50 (commonly the point on the concentration scale where inhibition reaches its midpoint) on Recombinant mouse CD38 was no more than 40 nM. The “Mouse plasma (% unbound)” value in series [1] is recorded as 13.0 % unbound.

`Cc1cc(C(=O)N[C@H]2CC[C@H](NCC(F)F)CC2)nc(-n2ccnc2)n1` [Example 2, N-((1r,4r)-4-((2,2-difluoroethyl)amino)cyclohexyl)-2-(1H-imidazol-1-yl)-6-methyl-pyrimidine-4-carboxamide]: the IC50 on Recombinant mouse CD38 was no more than 40 nM. In series [1], the “Mouse plasma (% unbound)” value was found to be 22.7 % unbound.

Turning to `O=C(N[C@H]1CC[C@H](NCC(F)F)CC1)c1cc(C2CC2)nc(-n2ccnc2)n1` [Example 3, 6-cyclopropyl-N-((1r,4r)-4-((2,2-difluoroethyl)amino)cyclohexyl)-2-(1H-imidazol-1-yl)pyrimidine-4-carboxamide], on Recombinant mouse CD38, the IC50 is no more than 40 nM. Also, in series [1], the “Mouse plasma (% unbound)” value worked out at 7.4 % unbound.

As for `Cc1cc(C(=O)N[C@H]2CC[C@H](N3CCC(F)(F)C3)CC2)nc(-n2ccnc2)n1` [Example 10, N-((1r,4r)-4-(3,3-difluoropyrrolidin-1-yl)cyclohexyl)-2-(1H-imidazol-1-yl)-6-methyl-pyrimidine-4-carboxamide], the IC50 on Recombinant mouse CD38 was no more than 40 nM. Besides, the “Mouse plasma (% unbound)” value in series [1] amounted to 10.6 % unbound.

With `Cc1cc(C(=O)N[C@H]2CC[C@H](NC(C)(C)C(F)(F)F)CC2)nc(-n2ccnc2)n1` [Example 21, 2-(1H-imidazol-1-yl)-6-methyl-N-((1r,4r)-4-((1,1,1-trifluoro-2-methylpropan-2-yl)amino)cyclohexyl)pyrimidine-4-carboxamide], the IC50 on Recombinant mouse CD38 was no more than 40 nM. Moreover, the “Mouse plasma (% unbound)” value in series [1] stood at 4.1 % unbound.
